Data from article PMC12155096 (International Journal of Molecular Sciences, 2025).
Structures can show the parent of a compound that is named as a salt. Where two headings read alike, the source gives them in different places.

Assays:
CYP3A4 = CYP3A4 (Homo sapiens, UniProt P08684); assay: biochemical
human CYP2C9 [1] = target: T1, human CYP2C9 (Homo sapiens, UniProt P11712); assay: biochemical
human CYP1A2 [2] = target: T2, human CYP1A2 (Homo sapiens, UniProt P05177)
T2 sequence (P05177 1-516): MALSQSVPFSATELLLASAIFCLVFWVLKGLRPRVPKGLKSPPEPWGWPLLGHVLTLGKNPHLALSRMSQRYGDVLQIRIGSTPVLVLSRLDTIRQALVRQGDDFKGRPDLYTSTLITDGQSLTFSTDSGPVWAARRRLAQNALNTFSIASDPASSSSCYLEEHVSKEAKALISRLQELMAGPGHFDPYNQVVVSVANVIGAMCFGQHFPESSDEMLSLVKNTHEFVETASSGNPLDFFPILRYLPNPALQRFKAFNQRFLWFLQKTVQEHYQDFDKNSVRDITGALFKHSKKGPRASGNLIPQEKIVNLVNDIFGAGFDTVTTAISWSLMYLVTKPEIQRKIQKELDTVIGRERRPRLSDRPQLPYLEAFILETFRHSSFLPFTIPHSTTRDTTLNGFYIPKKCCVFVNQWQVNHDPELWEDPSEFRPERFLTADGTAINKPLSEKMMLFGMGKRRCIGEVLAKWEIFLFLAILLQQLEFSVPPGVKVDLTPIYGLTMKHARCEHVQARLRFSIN

human CYP2C19 [3] = target: T3, human CYP2C19 (Homo sapiens, UniProt P33261); assay: biochemical
human CYP2D6 = human CYP2D6 (Homo sapiens, UniProt P10635); assay: biochemical
human CYP1A2 [4] = target: T2, human CYP1A2; assay: biochemical
human CYP2C19 [5] = target: T3, human CYP2C19
human CYP2C9 [6] = target: T1, human CYP2C9
[7] = CYP3A4 AC50 (half-maximal activity concentration)
[8] = CYP2C9 AC50 (half-maximal activity concentration)
[9] = CYP2C19 AC50 (half-maximal activity concentration)
[10] = CYP2D6 AC50 (half-maximal activity concentration)
[11] = CYP1A2 AC50 (half-maximal activity concentration)

Sequence of human CYP2D6 (P10635 whole entry): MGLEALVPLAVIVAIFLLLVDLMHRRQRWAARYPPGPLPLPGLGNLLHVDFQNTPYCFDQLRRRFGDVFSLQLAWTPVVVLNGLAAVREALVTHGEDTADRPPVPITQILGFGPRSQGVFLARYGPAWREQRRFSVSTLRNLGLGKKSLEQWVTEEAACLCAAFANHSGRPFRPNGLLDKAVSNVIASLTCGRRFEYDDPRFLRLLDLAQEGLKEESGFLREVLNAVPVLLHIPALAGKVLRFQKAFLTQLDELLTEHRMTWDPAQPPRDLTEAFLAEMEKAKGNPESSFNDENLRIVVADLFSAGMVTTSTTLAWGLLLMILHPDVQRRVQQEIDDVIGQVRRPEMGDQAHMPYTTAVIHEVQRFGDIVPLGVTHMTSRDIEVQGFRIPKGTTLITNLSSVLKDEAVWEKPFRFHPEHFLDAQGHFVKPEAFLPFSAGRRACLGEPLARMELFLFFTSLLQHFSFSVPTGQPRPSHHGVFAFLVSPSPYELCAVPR
T1 sequence (P11712 whole entry): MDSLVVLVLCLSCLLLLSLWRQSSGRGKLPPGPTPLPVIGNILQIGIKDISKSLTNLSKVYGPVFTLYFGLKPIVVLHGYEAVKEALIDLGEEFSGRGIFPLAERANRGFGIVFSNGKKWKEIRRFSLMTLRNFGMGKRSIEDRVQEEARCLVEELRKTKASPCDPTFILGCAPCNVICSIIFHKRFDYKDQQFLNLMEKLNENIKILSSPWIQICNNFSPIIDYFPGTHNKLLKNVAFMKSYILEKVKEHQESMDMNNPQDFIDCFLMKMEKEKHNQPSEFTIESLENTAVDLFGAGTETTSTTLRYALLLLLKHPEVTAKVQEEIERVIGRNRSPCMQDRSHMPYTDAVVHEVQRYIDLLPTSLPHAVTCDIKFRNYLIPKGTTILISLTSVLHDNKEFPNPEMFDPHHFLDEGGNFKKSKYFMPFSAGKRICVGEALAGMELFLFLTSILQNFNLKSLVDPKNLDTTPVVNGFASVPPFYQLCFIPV
T3 sequence (P33261 whole entry): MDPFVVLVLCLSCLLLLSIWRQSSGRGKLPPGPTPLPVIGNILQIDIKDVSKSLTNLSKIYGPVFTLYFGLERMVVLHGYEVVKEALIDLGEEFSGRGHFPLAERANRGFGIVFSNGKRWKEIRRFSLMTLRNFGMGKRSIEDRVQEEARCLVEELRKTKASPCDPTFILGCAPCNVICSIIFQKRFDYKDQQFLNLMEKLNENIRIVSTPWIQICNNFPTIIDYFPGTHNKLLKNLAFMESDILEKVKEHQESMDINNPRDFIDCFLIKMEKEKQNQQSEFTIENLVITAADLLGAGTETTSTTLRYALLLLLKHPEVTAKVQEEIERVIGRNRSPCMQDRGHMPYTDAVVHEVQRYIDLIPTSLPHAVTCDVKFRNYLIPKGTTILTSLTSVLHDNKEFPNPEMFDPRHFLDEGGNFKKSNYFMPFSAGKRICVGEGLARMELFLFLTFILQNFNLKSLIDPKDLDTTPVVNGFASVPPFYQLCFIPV
Sequence of CYP3A4 (P08684 whole entry): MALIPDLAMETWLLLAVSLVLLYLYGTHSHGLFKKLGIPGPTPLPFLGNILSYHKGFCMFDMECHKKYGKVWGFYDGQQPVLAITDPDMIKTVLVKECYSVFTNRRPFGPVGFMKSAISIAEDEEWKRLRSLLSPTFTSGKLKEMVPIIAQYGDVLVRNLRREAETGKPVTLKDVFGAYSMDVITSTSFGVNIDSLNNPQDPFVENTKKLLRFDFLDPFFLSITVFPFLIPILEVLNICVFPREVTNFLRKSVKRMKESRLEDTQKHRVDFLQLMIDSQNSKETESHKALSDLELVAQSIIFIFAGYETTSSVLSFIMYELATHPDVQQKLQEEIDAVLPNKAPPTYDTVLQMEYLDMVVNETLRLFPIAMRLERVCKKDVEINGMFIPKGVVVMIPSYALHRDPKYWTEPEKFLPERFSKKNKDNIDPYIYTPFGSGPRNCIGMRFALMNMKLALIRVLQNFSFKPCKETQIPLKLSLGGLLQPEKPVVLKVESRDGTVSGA

CC1(C)C(C=C(Cl)Cl)C1C(=O)OC(C#N)c1ccc(F)c(Oc2ccccc2)c1 (stereo not shown) [Cyfluthrin]
AC50 (CYP3A4; [7]): 4.01 µM
AC50 (human CYP2C9 [1]; [8]): 3.92 µM
CYP1A2 AC50 (half-maximal activity concentration) (human CYP1A2 [2]): Inactive
AC50 (human CYP2C19 [3]; [9]): 10.4 µM
AC50 (human CYP2D6; [10]): 22.2 µM

CCOP(=O)(Sc1ccccc1)Sc1ccccc1 [Edifenphos]
AC50 (CYP3A4; [7]): 8.65 µM
AC50 (human CYP2C9 [1]; [8]): 29.7 µM
AC50 (human CYP2C19 [3]; [9]): 8.61 µM
AC50 (human CYP2D6; [10]): 42.7 µM
AC50 (human CYP1A2 [4]; [11]): 13 µM

CCOc1ccc(C(C)(C)COCc2cccc(Oc3ccccc3)c2)cc1 [Etofenprox]
AC50 (CYP3A4; [7]): 35.7 µM
AC50 (human CYP2C9 [1]; [8]): 7.13 µM
CYP1A2 AC50 (half-maximal activity concentration) (human CYP1A2 [2]): Inconclusive inhibitor
AC50 (human CYP2C19 [3]; [9]): 16.4 µM
AC50 (human CYP2D6; [10]): 34.3 µM

CCOC(=O)c1nc(C(Cl)(Cl)Cl)n(-c2ccc(Cl)cc2Cl)n1 [Fenchlorazole-ethyl]
AC50 (CYP3A4; [7]): 3.26 µM
AC50 (human CYP2C9 [1]; [8]): 3.92 µM
CYP1A2 AC50 (half-maximal activity concentration) (human CYP1A2 [2]): Inactive
AC50 (human CYP2C19 [3]; [9]): 7.02 µM
AC50 (human CYP2D6; [10]): 13.1 µM

CCOC(=O)[C@@H](C)Oc1ccc(Oc2nc3ccc(Cl)cc3o2)cc1 [Fenoxaprop-P-ethyl]
AC50 (CYP3A4; [7]): 47.6 µM
AC50 (human CYP2C9 [1]; [8]): 55 µM
AC50 (human CYP2C19 [3]; [9]): 62.1 µM
AC50 (human CYP2D6; [10]): 47.5 µM
AC50 (human CYP1A2 [4]; [11]): 23.8 µM

CC(C)C(O)(c1ccc(OC(F)(F)F)cc1)c1cncnc1 (stereo not shown) [Flurprimidol]
IC50 (CYP3A4; CYP3A4 IC50 (half-maximal inhibitory concentration)): 0.54 µM
IC50 (human CYP2C19 [3]; CYP2C19 IC50 (half-maximal inhibitory concentration)): 2.67 µM
IC50 (human CYP2D6; CYP2D6 IC50 (half-maximal inhibitory concentration)): 10.3 µM
IC50 (human CYP1A2 [4]; CYP1A2 IC50 (half-maximal inhibitory concentration)): 63.3 µM

COC(=O)C(C)Oc1ccc(Oc2ncc(C(F)(F)F)cc2Cl)cc1 (stereo not shown) [Haloxyfop-methyl]
AC50 (CYP3A4): 27.8 µM
AC50 (human CYP2C9 [1]): 5.74 µM
AC50 (human CYP2C19 [3]): 50.9 µM
AC50 (human CYP2D6): 46.8 µM
AC50 (human CYP1A2 [4]): 46.8 µM

O=C(NC1CCN(CCc2c[nH]c3ccccc23)CC1)c1ccccc1 [Indoramin hydrochloride]
CYP2C19 AC50 (half-maximal activity concentration) (human CYP2C19 [5]): Inactive
AC50 (CYP3A4; [7]): 15.6 µM
CYP1A2 AC50 (half-maximal activity concentration) (human CYP1A2 [2]): Inactive
AC50 (human CYP2D6; [10]): 4.31 µM
CYP2C9 AC50 (half-maximal activity concentration) (human CYP2C9 [6]): Inactive

Cc1cccc(C)c1NC(=O)CN1CCN(CCCC(c2ccc(F)cc2)c2ccc(F)cc2)CC1 [Lidoflazine]
AC50 (CYP3A4; [7]): 2.26 µM
AC50 (human CYP2C9 [1]; [8]): 21.3 µM
CYP1A2 AC50 (half-maximal activity concentration) (human CYP1A2 [2]): Inactive
AC50 (human CYP2C19 [3]; [9]): 36.7 µM
AC50 (human CYP2D6; [10]): 5.18 µM

CC[N+](C)(CC)CCOC(=O)C1c2ccccc2Oc2ccccc21 [Methantheline bromide]
CYP2C19 AC50 (half-maximal activity concentration) (human CYP2C19 [5]): Inactive
AC50 (CYP3A4; [7]): 15.6 µM
CYP1A2 AC50 (half-maximal activity concentration) (human CYP1A2 [2]): Inconclusive inhibitor
AC50 (human CYP2D6; [10]): 3.29 µM
CYP2C9 AC50 (half-maximal activity concentration) (human CYP2C9 [6]): Inactive

COc1ccc(C(=O)c2ccc(C)cc2)c(O)c1 [Mexenone]
AC50 (CYP3A4; [7]): 6.22 µM
AC50 (human CYP2C9 [1]; [8]): 14.7 µM
AC50 (human CYP2C19 [3]; [9]): 5.89 µM
AC50 (human CYP2D6; [10]): 56.1 µM
AC50 (human CYP1A2 [4]; [11]): 16.1 µM

O=C1NC2CCCCN2C12CCN(CCCN1c3ccccc3CCc3ccc(Cl)cc31)CC2 (stereo not shown) [Mosapramine]
CYP2C19 AC50 (half-maximal activity concentration) (human CYP2C19 [5]): Inconclusive inhibitor
AC50 (CYP3A4; [7]): 6.79 µM
CYP1A2 AC50 (half-maximal activity concentration) (human CYP1A2 [2]): Inactive
AC50 (human CYP2D6; [10]): 6.53 µM
CYP2C9 AC50 (half-maximal activity concentration) (human CYP2C9 [6]): Inconclusive inhibitor

CN(C/C=C/c1ccccc1)Cc1cccc2ccccc12 [Naftifine hydrochloride]
AC50 (CYP3A4; [7]): 12.4 µM
AC50 (human CYP2C9 [1]; [8]): 12.5 µM
AC50 (human CYP2C19 [3]; [9]): 5.52 µM
AC50 (human CYP2D6; [10]): 1.06 µM
AC50 (human CYP1A2 [4]; [11]): 12.5 µM

CC1(C)C(C=C(Cl)Cl)C1C(=O)OCc1cccc(Oc2ccccc2)c1 (stereo not shown) [Permethrin]
AC50 (CYP3A4; [7]): 10.9 µM
AC50 (human CYP2C9 [1]; [8]): 11.2 µM
AC50 (human CYP2C19 [3]; [9]): 5.91 µM
AC50 (human CYP2D6; [10]): 27.5 µM

CN1CCC(=C2c3ccccc3Sc3ccccc32)CC1 [Pimethixene maleate]
AC50 (CYP3A4; [7]): 16.1 µM
CYP1A2 AC50 (half-maximal activity concentration) (human CYP1A2 [2]): Inactive
AC50 (human CYP2C19 [3]; [9]): 21.7 µM
AC50 (human CYP2D6; [10]): 3.22 µM
CYP2C9 AC50 (half-maximal activity concentration) (human CYP2C9 [6]): Inactive

Oc1c(Cl)c(Cl)c(Cl)c(Cl)c1Cl [Sodium pentachlorophenate]
CYP2C19 AC50 (half-maximal activity concentration) (human CYP2C19 [5]): Inactive
AC50 (CYP3A4; [7]): 71 µM
AC50 (human CYP2D6; [10]): 2.15 µM
AC50 (human CYP1A2 [4]; [11]): 73.9 µM

c1ccc(P(c2ccccc2)c2ccccc2)cc1 [Triphenylphosphine]
AC50 (CYP3A4; [7]): 36.2 µM
AC50 (human CYP2C9 [1]; [8]): 7.13 µM
CYP1A2 AC50 (half-maximal activity concentration) (human CYP1A2 [2]): Inactive
AC50 (human CYP2C19 [3]; [9]): 8.69 µM
AC50 (human CYP2D6; [10]): 35.7 µM
